Literature values as cited in US20070190209A1, “All natural multivitamin and multimineral dietary supplement formulations for enhanced absorption and biological utilization” (Mannatech, Inc., priority 2006, published 2007).
Like-named read-outs stand apart in the source and are kept apart here.

What was measured:
thyroid gland of rats = settings: Radovic, et al. (2005)
[1] = tested on: human cytosolic glutathione S-transferases (GSTs); settings: van Haften, et al. (2002, 2003)
[2] = tested on: phase II detoxifying enzymes; settings: glutathione transferases, NAD(P)H:quinone reductases, epoxide hydrolases; literature
[3] = tested on: intestinal glucuronidation
bone components = settings: in vitro, combined with zinc; Uchiyama, et al. (2005)
osteoclasts = settings: Rao, et al. (2003)
[4] = tested on: mammalian glutathione transferases; settings: Kulkarni and Kulkarni (1995)
[5] = by decreasing or eliminating intestinal glucuronidation, Mizuma and Awazu (2004)

In the case of `COc1cc(O)c(CC=C(C)C)c(O)c1C(=O)/C=C/c1ccc(O)cc1` [xanthohumol], the “uptake of iodine into the thyroid gland” value (thyroid gland of rats) is listed as “stimulates the uptake of iodine”.

In the case of tocopherols, the “activity of human cytosolic GSTs” value [1] is listed as “inhibited”.

For `C[S+]([O-])CCCC/C(=N\OS(=O)(=O)O)S[C@@H]1O[C@H](CO)[C@@H](O)[C@H](O)[C@H]1O` (stereo partly shown) [glucoraphanin], the “induction of phase II detoxifying enzymes” value [2] is given as “potent inducers”.

In the case of tocotrieneols, the “activity of human cytosolic GSTs” value [1] is given as “inhibited”.

In the case of `O=c1c(O)c(-c2ccc(O)c(O)c2)oc2cc(O)cc(O)c12` [quercetin], the “absorption of model drug alpha-napthol” value [3, 5] is given as “increase the absorption”.

For `O=C(O[C@@H]1Cc2c(O)cc(O)cc2O[C@@H]1c1cc(O)c(O)c(O)c1)c1cc(O)c(O)c(O)c1` [epigallocatechin galleate (ECGC), epigallocatechin galleate], the “absorption of model drug alpha-napthol” value [3] is listed as “increase the absorption”.

For `CC1=C(/C=C/C(C)=C/C=C/C(C)=C/C=C/C=C(C)/C=C/C=C(C)/C=C/C2=C(C)C[C@@H](O)CC2(C)C)C(C)(C)CCC1` [beta-cryptoxanthin], the “anabolic effects on bone components” value (bone components) is given as “synergistic anabolic effects”.

In the case of `Oc1cc(O)c2c(c1)O[C@H](c1ccc(O)c(O)c1)[C@H](O)C2` [epicatechin], the “absorption of model drug alpha-napthol” value [3, 5] is listed as “increase the absorption”.

In the case of `CC(C)=CCC/C(C)=C/C=C/C(C)=C/C=C/C(C)=C/C=C/C=C(C)/C=C/C=C(C)/C=C/C=C(\C)CCC=C(C)C` [lycopene], the “formation of osteoclasts and osteoclastic mineral resorption” value (osteoclasts) is given as “prevented the formation of osteoclasts and osteoclastic mineral resorption”.

For `O=c1cc(-c2ccccc2)oc2cc(O)cc(O)c12` [chrysin], the “absorption of model drug alpha-napthol” value [3, 5] is given as “increase the absorption”.

In the case of vitamin A, the “inhibition of mammalian glutathione transferases” value [4] is listed as “inhibit mammalian glutathione transferases at low concentrations”.

For `Cc1c(C)c2c(c(C)c1O)CC[C@@](C)(CCC[C@H](C)CCC[C@H](C)CCCC(C)C)O2` [alpha-tocopherol], the “activity of human cytosolic GSTs” value [1] is listed as “inhibited”.

In the case of `CSCCCCC(=NOS(=O)(=O)O)S[C@@H]1O[C@H](CO)[C@@H](O)[C@H](O)[C@H]1O` [glucoerucin], the “induction of phase II detoxifying enzymes” value [2] is given as “potent inducers”.
